{"source": "patent US20120270300A1", "about": "“PRODUCTION OF RECOMBINANT FACTOR IX IN A HUMAN HEPATOCYTE CELL LINE” (Universite Claude Bernard Lyon I, priority 2009, published 2012)", "key": {"[1]": {"test_system": "Huh7 cells transiently transfected with pcDNAFIXwt", "test": "Effects of protein degradation inhibitors on the intracellular level of FIXwt (ELISA on lysates)", "format": "cell-based, human", "conditions": "for Intracellular FIX level (mean ± SE): 6 h treatment, 36 h after transfection, % relative to nontreated cell lysates, NH4Cl 50 mM/l, beta-lactone 10 μM/l, brefeldin A 10 μg/ml", "description": "Huh7 cells (1×10^6 cells/dish) were transiently transfected at 80% confluence in 60 mm culture dishes. Thirty-six hours after transfection, the cells were incubated in FBS-free medium containing 10 μM/l of clasto-lactacystin β-lactone (Calbiochem, France Biochem, Meudon, France), 50 mM/l of ammonium chloride, or 10 μg/ml of brefeldin A (Sigma Aldrich). The medium was renewed every 2 hours.\nThe cell lysates were harvested 6 h later and prepared in 120 μl of cold lysis buffer. The FIX antigen concentration was quantified on the lysates by means of an ELISA assay. The results are expressed as percentage of values obtained relative to the nontreated control lysates. The comparisons were carried out by application of Fisher's test using the Stat View® software.\nThirty-six hours after transfection, the inhibitors were added to the culture medium and left for 6 h. The intracellular FIX concentrations were measured after treatment by means of an ELISA assay (the values are expressed as % of FIX relative to the values obtained in the nontreated cell lysates). The results are brought together in table 1 below and correspond to three independent transfections."}, "[2]": {"test_system": "factor IX-deficient plasma", "test": "Specific coagulation activity, one-step chronometric aPTT test, related back to Benefix (aPTT/ELISA)", "format": "biochemical", "description": "The term “biologically active FIX” is intended to mean a factor IX of which the specific coagulation activity is at least 100%. The recombinant FIX secreted into the culture medium of the present invention preferably has a specific coagulation activity of from 150 to 200%, preferably from 170 to 200%. The specific coagulation activity of the factor IX is determined by means of the technique termed chronometric time technique by measuring the partial thromboplastin time (PTT) or activated partial thromboplastin time (aPTT) which is a semi-overall test of blood coagulation which uses a coagulometer. The test used is detailed in the examples. In this test, Benefix® has a specific activity of 100%.\nThe specific coagulation activity of the factor IX is determined using the technique termed chronometric time technique by measuring the partial thromboplastin time (PTT) or activated partial thromboplastin time (aPTT) according to K. J. Smith et al., Blood, 72, 1269-1277 (1988), which is a semi-overall one-step blood coagulation test with an MDA II® or else Destiny Max coagulometer (Trinity Biotech, Dublin, Ireland). For this, fifty microliters of sample are diluted to 1/10th in imidazole buffer (Trinity Biotech, Bray, Ireland). […] The coagulation time is measured by means of a coagulometer using an MDA II® or else Destiny Max automated device (Trinity Biotech, Bray, Ireland). […]"}, "[3]": {"conditions": "hemophilia B patients, versus plasma FIX (Mononine); cited from earlier work"}, "[4]": {"conditions": "versus plasma FIX (Mononine); cited from earlier work"}, "[5]": {"test_system": "factor IX-deficient plasma", "conditions": "FIX from HepG2 cells with viral vectors, published by Chen et al.; cited from earlier work"}, "[6]": {"test_system": "factor IX-deficient plasma", "test": "aPTT coagulation test under the conditions of Chen et al., related to standard plasma values, converted into ng/ml", "format": "biochemical", "conditions": "Huh7-CD4 clone", "description": "A comparative study with respect to the works of Chen et al., 1997, was carried out. In these experiments, 1×10^6 cells of the Huh7-CD4 clone were seeded into 6-well plates. The following day, the medium was renewed and left in the presence of the producer cells for 24 hours. The FIX concentrations in this medium are determined using the Asserachrom IX:Ag ELISA kit (Diagnostica Stago). The activity of the FIX secreted into this medium is determined in a one-step coagulation test (aPTT) with an MDA II or else Destiny Max coagulometer (Trinity Biotech, Dublin, Ireland) as described above. The activity of the factor IX is determined from standard plasma values (Standard Human Plasma, Siemens Marburg, Germany, calibrated against a WHO—World Health Organization—standard) by means of a log-log curve. […] The specific activity of the FIX resulting from the Huh7-CD4 clone is calculated according to the ratio between the coagulant activity read for the sample, related back to the standard plasma values, and its FIX concentration (aPTT/ELISA).\nMoreover, the specific activity of the FIX produced by the Huh7-CD4 line was determined according to the conditions determined by Chen et al. The ratio between the concentrations measured by the aPTT method (ng/ml) and measured by ELISA (ng/ml) was calculated on the basis of five different assays. […]"}}, "note": "Read-outs that look alike come from different tables or passages of the source.", "data": [{"compound": "CC(C)[C@H](O)[C@@]12NC(=O)[C@H](C)[C@@H]1OC2=O", "note": "[Beta-lactone, clasto-lactacystin β-lactone]", "values": [{"measurement": "Intracellular FIX level (mean ± SE)", "setting": "[1]", "value": 50.1, "unit": "% +/− 25.8"}, {"measurement": "Intracellular FIX level (mean ± SE)", "setting": "[1]; listed as clasto-lactacystin β-lactone", "value": "no significant effect"}]}, {"compound": "C[C@H]1CCC/C=C/[C@@H]2C[C@H](O)C[C@H]2[C@H](O)/C=C/C(=O)O1", "note": "[Brefeldin A, brefeldin A]", "values": [{"measurement": "Intracellular FIX level (mean ± SE)", "setting": "[1]", "value": 254.4, "unit": "% +/− 21.4"}, {"measurement": "increase of intracellular FIXwt level compared with that without inhibitor", "setting": "[1]; after incubation with brefeldin A, p=0.005", "value": 370, "unit": "%"}]}, {"compound": "Benefix: marketed recombinant FIX (Wyeth) synthesized by CHO cells stably transfected with the FIX cDNA", "values": [{"measurement": "specific activity relative to that of Benefix", "setting": "[2]; culture supernatants of transiently transfected Huh7 cells, 36 h after transfection, Benefix = 100%", "value": 100, "unit": "%"}, {"measurement": "half-life in the blood stream compared with plasma FIX", "setting": "[3]", "value": "similar"}, {"measurement": "specific activity compared with FIX of plasma origin", "setting": "[4]", "value": "equivalent"}]}, {"compound": "FIX/GCF9SN-MPSV: FIX produced with a viral vector in the HepG2 hepatocyte cell line by Chen et al., 1997", "values": [{"measurement": "% specific activity aPTT/ELISA", "setting": "[5]", "value": "73.5 +/− 19.7%"}, {"measurement": "aPTT", "setting": "[5]", "value": "55 ± 15", "unit": "ng/mL"}]}, {"compound": "FIX/GCNCF9: FIX produced with a viral vector in the HepG2 hepatocyte cell line by Chen et al., 1997", "values": [{"measurement": "% specific activity aPTT/ELISA", "setting": "[5]", "value": "93.7 +/− 11%"}, {"measurement": "aPTT", "setting": "[5]", "value": "120 ± 14", "unit": "ng/mL"}]}, {"compound": "FIXwt: recombinant human factor IX expressed in the human hepatocyte cell line Huh7 (transient, or stable clone Huh7-CD4) and secreted into the supernatant", "values": [{"measurement": "specific activity improved by a factor", "setting": "[2]; transiently transfected Huh7 cells, versus Benefix", "value": 1.7}, {"measurement": "aPTT", "setting": "[6]; 24 hours/10^6 cells, 5 μg/ml of FIX = 100%", "value": "740 ± 59", "unit": "ng/mL"}, {"measurement": "% specific activity aPTT/ELISA", "setting": "[6]; related to standard plasma, five assays", "value": "161 +/− 37%"}]}]}
